Reference: patent US10183022B2, “Pharmaceutical composition for treating ulcerative colitis” (EA Pharma Co., Ltd., priority 2014, dated 2019)

Test system: ulcerative colitis patients in an active stage
Assay: Clinical study, 960 mg orally 3 times a day for 8 weeks: subscore for physician's global assessment of Mayo score
Type: in vivo, human
Description: The compound of Example 1 or the compound of Comparative Example 1 was orally administered after meals 3 times a day. The number of the given tablets was 8 per administration (i.e., the amount of the compound (1) of Example 1 administered was 960 mg per administration). The administration period was 8 weeks. The compounds were administered until the timing after the breakfast on the day before the assessment day at Week 8.
(4) Physician's Global Assessment [Investigation Timings: Weeks 0, 2, 4, and 8 (or Discontinuation Time)]
The investigators or sub-investigators conducted a medical interview with the subjects (for abdominal discomfort, systemic state, investigator's finding, subject's impression, and so forth), and investigated the state on each assessment day.
The investigators or sub-investigators scored the physician's global assessment according to the following criteria with reference to the other three assessment criteria (stool frequency, bloody stool, and mucosal finding), as well as the abdominal discomfort, systemic state, investigator's finding, subject's impression, and so forth. Note that, on the days of the assessment performed without an endoscope, no mucosal finding was considered in scoring the physician's global assessment.

COC(=O)[C@H](Cc1ccc(-n2c(=O)c3cc(N(C)C)ccc3n(C)c2=O)cc1)NC(=O)c1c(Cl)cccc1Cl [Example 1, methyl(2S)-2-(2,6-dichlorobenzamide)-3-{4-[6-(dimethylamino)-1-methyl-2,4-dioxo-1,4-dihydroquinazolin-3(2H)-yl]phenyl}propanoate]
Number of cases, cross tabulation of subscore for physician's global assessment (Week 2 score 0, Week 0 score 0): 0 | Number of cases, cross tabulation of subscore for physician's global assessment (Week 2 score 0, Week 0 score 1): 0 | Number of cases, cross tabulation of subscore for physician's global assessment (Week 2 score 0, Week 0 score 2): 3 | Number of cases, cross tabulation of subscore for physician's global assessment (Week 2 score 0, Week 0 score 3): 0 | Number of cases, cross tabulation of subscore for physician's global assessment (Week 2 score 1, Week 0 score 0): 0 | Number of cases, cross tabulation of subscore for physician's global assessment (Week 2 score 1, Week 0 score 1): 3 | Number of cases, cross tabulation of subscore for physician's global assessment (Week 2 score 1, Week 0 score 2): 19 | Number of cases, cross tabulation of subscore for physician's global assessment (Week 2 score 1, Week 0 score 3): 0 | Number of cases, cross tabulation of subscore for physician's global assessment (Week 2 score 2, Week 0 score 0): 0 | Number of cases, cross tabulation of subscore for physician's global assessment (Week 2 score 2, Week 0 score 1): 0 | Number of cases, cross tabulation of subscore for physician's global assessment (Week 2 score 2, Week 0 score 2): 26 | Number of cases, cross tabulation of subscore for physician's global assessment (Week 2 score 2, Week 0 score 3): 0 | Number of cases, cross tabulation of subscore for physician's global assessment (Week 2 score 3, Week 0 score 0): 0 | Number of cases, cross tabulation of subscore for physician's global assessment (Week 2 score 3, Week 0 score 1): 0 | Number of cases, cross tabulation of subscore for physician's global assessment (Week 2 score 3, Week 0 score 2): 0 | Number of cases, cross tabulation of subscore for physician's global assessment (Week 2 score 3, Week 0 score 3): 0 | Number of cases, cross tabulation of subscore for physician's global assessment (Week 4 score 0, Week 0 score 0): 0 | Number of cases, cross tabulation of subscore for physician's global assessment (Week 4 score 0, Week 0 score 1): 0 | Number of cases, cross tabulation of subscore for physician's global assessment (Week 4 score 0, Week 0 score 2): 7 | Number of cases, cross tabulation of subscore for physician's global assessment (Week 4 score 0, Week 0 score 3): 0 | Number of cases, cross tabulation of subscore for physician's global assessment (Week 4 score 1, Week 0 score 0): 0 | Number of cases, cross tabulation of subscore for physician's global assessment (Week 4 score 1, Week 0 score 1): 3 | Number of cases, cross tabulation of subscore for physician's global assessment (Week 4 score 1, Week 0 score 2): 23 | Number of cases, cross tabulation of subscore for physician's global assessment (Week 4 score 1, Week 0 score 3): 0 | Number of cases, cross tabulation of subscore for physician's global assessment (Week 4 score 2, Week 0 score 0): 0 | Number of cases, cross tabulation of subscore for physician's global assessment (Week 4 score 2, Week 0 score 1): 0 | Number of cases, cross tabulation of subscore for physician's global assessment (Week 4 score 2, Week 0 score 2): 18 | Number of cases, cross tabulation of subscore for physician's global assessment (Week 4 score 2, Week 0 score 3): 0 | Number of cases, cross tabulation of subscore for physician's global assessment (Week 4 score 3, Week 0 score 0): 0 | Number of cases, cross tabulation of subscore for physician's global assessment (Week 4 score 3, Week 0 score 1): 0 | Number of cases, cross tabulation of subscore for physician's global assessment (Week 4 score 3, Week 0 score 2): 0 | Number of cases, cross tabulation of subscore for physician's global assessment (Week 4 score 3, Week 0 score 3): 0 | Number of cases, cross tabulation of subscore for physician's global assessment (Week 8 score 0, Week 0 score 0): 0 | Number of cases, cross tabulation of subscore for physician's global assessment (Week 8 score 0, Week 0 score 1): 1 | Number of cases, cross tabulation of subscore for physician's global assessment (Week 8 score 0, Week 0 score 2): 6 | Number of cases, cross tabulation of subscore for physician's global assessment (Week 8 score 0, Week 0 score 3): 0 | Number of cases, cross tabulation of subscore for physician's global assessment (Week 8 score 1, Week 0 score 0): 0 | Number of cases, cross tabulation of subscore for physician's global assessment (Week 8 score 1, Week 0 score 1): 2 | Number of cases, cross tabulation of subscore for physician's global assessment (Week 8 score 1, Week 0 score 2): 28 | Number of cases, cross tabulation of subscore for physician's global assessment (Week 8 score 1, Week 0 score 3): 0 | Number of cases, cross tabulation of subscore for physician's global assessment (Week 8 score 2, Week 0 score 0): 0 | Number of cases, cross tabulation of subscore for physician's global assessment (Week 8 score 2, Week 0 score 1): 0 | Number of cases, cross tabulation of subscore for physician's global assessment (Week 8 score 2, Week 0 score 2): 14 | Number of cases, cross tabulation of subscore for physician's global assessment (Week 8 score 2, Week 0 score 3): 0 | Number of cases, cross tabulation of subscore for physician's global assessment (Week 8 score 3, Week 0 score 0): 0 | Number of cases, cross tabulation of subscore for physician's global assessment (Week 8 score 3, Week 0 score 1): 0 | Number of cases, cross tabulation of subscore for physician's global assessment (Week 8 score 3, Week 0 score 2): 0 | Number of cases, cross tabulation of subscore for physician's global assessment (Week 8 score 3, Week 0 score 3): 0
